Laboratory results as given in US10495571B2 (priority 2014, dated 2019).

Conditions: CMD-3D layer without HSA, PBS buffer, drug cM1 0.00-50 μM, DMSO 0.5%, 5%
Description: The functional layer AF1 of the second sample region REG2 was otherwise similar to the functional layer AF1 of the first sample region REG1, except that the functional layer AF1 of the first sample region REG1 comprised HSA. […] B0b denotes the input beam impinging on the second sample region REG2, and B1b denotes the reflected beam reflected from the second sample region REG2. ZV2 denotes the sample volume of the second sample region REG2.
Prior to the second test, the functional layer AF1 of the second sample region was formed by a method, which comprised: • attaching a layer of CMD-3D to the metal layer 120 of the sensor, • washing the layer of CMD-3D with an aqueous solution, which comprised 2M NaCl and 10 mM NaOH, • activating the layer of CMD-3D with an activation solution, which comprised EDC and NHS. • treating the layer of CMD-3D with an aqueous solution, which comprised MES (the bulk concentration of MES was 5 mM and pH 5.0), • deactivating the functional layer AF1 by exposing it to an aqueous solution, which comprised ethanolamine (pH 8.0). • washing the functional layer AF1 with an aqueous solution, which comprised 50 mM NaOH. […]
The curve ϕAUX,CH2(t) may be calculated e.g. by using a modified equation (7h), where the parameter C may be determined by using a modified equation (7d), and the parameter D may be determined by using a modified equation (7i). […]

Q: For indomethacine, which “average value of the auxiliary angle ϕAUX,CH2(t) of the second sample region (reference, no HSA)” value is on record?
A: Its value is “substantially independent of the bulk concentration cM1”.
